Results taken from patent US9273304B2, “Inactivation method” (Thermo Fisher Scientific Baltics UAB, priority 2006, dated 2016).

Tested on: CFTR gene or insulin gene, human genome DNA as template
Test: PCR specificity and efficiency, mixtures set up at room temperature (CFTR and insulin gene fragments)
Assay type: biochemical
Protocol: Sets of PCR reactions were carried out in the Mastercycle (Eppendorf). The reactions performed using 2 units of both the unmodified and the modified enzymes. Composition of the buffer used in the experiments with the modified Taq DNA polymerase was described in the Example 7. The unmodified Taq DNA was tested in the buffer of the following compositions: 75 mM Tris-HCl (pH 8.8 at 25° C.), 20 mM (NH4)SO4, 0.01% Tween20. Both buffers were supplemented with 2 mM MgCl2, 0.2 mM dNTP, 0.5 μm of each PCR primer and human DNA (100 ng/50 μl). For amplification of 950 by DNA fragment of the CFTR gene, the same set of PCR primers was used as described in the Example 8. A 400 bp fragment of the insulin gene was amplified with the following set of PCR primers: […]
The components of PCR were mixed at room temperature and the reactions were performed using the following cycling profiles: • 1. For the 950 bp amplicon: 95° C.—5 min; (95° C.—[…], 50° C.—0.5 min, 72° C.—1 min)—40 cycles; 72° C.—7 min. • 2. For the 400 bp amplicon: 95° C.—5 min; (95° C.—0.5 min, 65° C.—0.5 min, 72° C.—1 min)—40 cycles; 72° C.—7 min.
After completion of PCR, the samples were mixed with aliquots (10 μl) of the 6× MassRuller™ Loading Dye (Fermentas), and the samples were analyzed by gel electrophoresis in 1.7% agarose. The Gene Ruler™ 100 bp DNA Ladder Plus (Fermentas) was used for evaluation of the amplicon size. Electrophoresis was performed in the TBE buffer (89 mM Tris, 89 mM H3BO3, and 1 mM EDTA) at 5 V/cm for 75 min. After completion of electrophoresis, gels were stained with ethidium bromide (0.5 μg/ml). Then, gels were destained in MiliQ-quality water for 20 minutes. DNA bands were visualized under UV.

Taq DNA polymerase modified with N-etoxycarbonyl-2,3-dimethylmaleinimide: Recombinant Taq DNA polymerase reversibly inactivated by reaction with N-ethoxycarbonyl-2,3-dimethylmaleinimide in aqueous solution (preferred molar ratio 1/110)
yield of unspecific PCR byproducts versus unmodified DNA polymerase (CFTR and insulin gene fragments, PCR set up at room temperature, FIG. 10): lesser yield
yield of the byproducts caused by the primer dimerization versus unmodified DNA polymerase (insulin gene 400 bp fragment): lower
yield of the insulin amplicon versus unmodified DNA polymerase (insulin gene 400 bp fragment): higher yield
